According to patent publication JP2011032172A, “酸化ストレス低減剤。” (Mitsubishi Gas Chemical Co Inc, priority 2009, dated 2011):

Columns and labels:
8−OHdG = experiment: urinary 8-OHdG production rate in placebo-controlled double-blind parallel-group human trial (ELISA); assay type: in vivo; details: healthy adult men and women 45-65 years; PQQ disodium salt 20 mg hard capsule after breakfast daily, 3 months; early-morning urine before and at 4, 8, 12 weeks; result in words (rate calculated in ng/kg/hr)
[1] = system: hexanoyl-lysine (ヘキサノイルリジン(HEL)); experiment: urinary hexanoyl-lysine (HEL) production rate in the same human trial (ELISA); assay type: in vivo; details: healthy adult men and women 45-65 years; PQQ disodium salt 20 mg hard capsule after breakfast daily, 3 months; urine from same two groups as Example 1; result in words (rate calculated in pmol/kg/hr)

O=C(O)c1cc(C(=O)O)c2c(n1)C(=O)C(=O)c1cc(C(=O)O)[nH]c1-2 [PQQ, ピロロキノリンキノン, 二ナトリウム塩] was tested, and the “8−OHdG production rate” value (8−OHdG) was “低下傾向” and the HEL production rate [1] was “低下傾向”.
